In PubChem BioAssay AID2060603 (Molecular Pharmacology Branch, DTP, NCI, 2025):
pIC50: −log10 of the molar value. Several values for one entry are separate records, joined by “and”; a condition that tells them apart may be missing. Equal entries are not always repeated.

Tested on: 422866-222-R5-J1-PDC spheroid viability
Assay: Anticancer human tumor 422866-222-R5-J1-PDC patient-derived pancreatic adenocarcinoma cell line growth inhibition [CLK]
Conditions: spheroids with HUVEC and MSC; for viability, T/C: stronger effect = lower value; for pIC50: curve of compound
Summary of the method: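 Patient-derived tumor cells grown as complex spheroids with HUVEC endothelial cells and mesenchymal stem cells, treated with drug combinations. Concentrations descend in half-log steps from near clinical Cmax, or from 10 microM if Cmax unknown.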
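Also: spheroids exposed to agents for seven days before readout.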

Row | pIC50 | SMILES | viability, T/C (compound 0.0316 µM) | viability, T/C (compound 0.1 µM) | viability, T/C (compound 0.316 µM) | viability, T/C (compound 1 µM) | viability, T/C (compound 3.16 µM) | viability, T/C (compound 10 µM) | viability, T/C (compound 0.00316 µM) | viability, T/C (compound 0.01 µM)
1 | < 5.00 | CC1(C)CCC(CN2CCN(c3ccc(C(=O)NS(=O)(=O)c4ccc(NCC5CCOCC5)c([N+](=O)[O-])c4)c(Oc4cnc5[nH]ccc5c4)c3)CC2)=C(c2ccc(Cl)cc2)C1 | 89.7% and 94.5% | 95.6% and 97.1% | 103% and 77.2% | 105% and 92.1% | 99.1% and 120% | 69.8% and 69% |  | 
2 | < 5.00 | CCCS(=O)(=O)Nc1ccc(F)c(C(=O)c2c[nH]c3ncc(-c4ccc(Cl)cc4)cc23)c1F | 103% and 89.2% | 100% and 86% | 128% and 114% | 147% and 152% | 169% and 165% | 137% and 149% |  | 
3 | < 6.00 | CCN1CCN(Cc2ccc(Nc3ncc(F)c(-c4cc(F)c5nc(C)n(C(C)C)c5c4)n3)nc2)CC1 | 87% and 73.9% | 82.6% and 59.1% | 80.8% and 66.4% | 98.7% and 90.2% |  |  | 99.5% and 74% | 84% and 78.8%
